Laboratory results taken from ChEMBL document CHEMBL1153839, “Pulmonary versus systemic delivery of antibiotics: comparison of vancomycin dispositions in the isolated rat lung” (Antimicrob Agents Chemother, 2007).

Tests used:
[1] = Ratio of drug level in lung to efferent fluid in Wistar rat at 500 ug, administered through pulmonary route under respiratory mode of 60 respirations per minute, 2 ml/kg tidal volume; assay type: ADME; conditions: in vivo, inhaled_or_intranasal
[2] = Ratio of drug level in bronchoalveolar fluid to efferent fluid in Wistar rat at 500 ug, administered through pulmonary route under respiratory mode of 30 respirations per minute, 4 ml/kg tidal volume; assay type: ADME; conditions: in vivo, inhaled_or_intranasal
[3] = Ratio of drug level in lung to efferent fluid in Wistar rat at 500 ug, administered through systemic route under respiratory mode of 30 respirations per minute, 4 ml/kg tidal volume; assay type: ADME; conditions: in vivo, other
[4] = Ratio of drug level in bronchoalveolar fluid to lung in Wistar rat at 500 ug, administered through pulmonary route under respiratory mode of 60 respirations per minute, 2 ml/kg tidal volume; assay type: ADME; conditions: in vivo, other
[5] = Ratio of drug level in bronchoalveolar fluid to lung in Wistar rat at 500 ug, administered through pulmonary route under respiratory mode of 30 respirations per minute, 4 ml/kg tidal volume; assay type: ADME; conditions: in vivo, inhaled_or_intranasal
Lung [6] = experiment: Drug level in Wistar rat lung at 500 ug, administered through systemic route; assay type: ADME, tissue-based; conditions: in vivo
[7] = Ratio of drug level in lung to efferent fluid in Wistar rat at 500 ug, administered through systemic route under respiratory mode of 60 respirations per minute, 2 ml/kg tidal volume; assay type: ADME; conditions: in vivo, other
[8] = AUC (0 to infinity) in Wistar rat lung at 500 ug, administered through systemic route under respiratory mode of 30 respirations per minute, 4 ml/kg tidal volume; assay type: ADME; parameters: dose 500 ug, time infinity
[9] = AUC (0 to infinity) in Wistar rat lung at 500 ug, administered through systemic route under respiratory mode of 60 respirations per minute, 2 ml/kg tidal volume; assay type: ADME; parameters: dose 500 ug, time infinity
Lung [10] = experiment: Mean transit time in Wistar rat lung at 500 ug, administered through systemic route under respiratory mode of 60 respirations per minute, 2 ml/kg tidal volume; assay type: ADME, tissue-based; conditions: in vivo, other
[11] = Ratio of drug level in bronchoalveolar fluid to efferent fluid in Wistar rat at 500 ug, administered through pulmonary route under respiratory mode of 60 respirations per minute, 2 ml/kg tidal volume; assay type: ADME; conditions: in vivo, inhaled_or_intranasal
[12] = Ratio of drug level in lung to efferent fluid in Wistar rat at 500 ug, administered through pulmonary route under respiratory mode of 30 respirations per minute, 4 ml/kg tidal volume; assay type: ADME; conditions: in vivo, inhaled_or_intranasal
Lung [13] = experiment: Mean transit time in Wistar rat lung at 500 ug, administered through systemic route under respiratory mode of 30 respirations per minute, 4 ml/kg tidal volume; assay type: ADME, tissue-based; conditions: in vivo, other
[14] = Drug level in Wistar rat bronchoalveolar fluid at 500 ug, administered through systemic route; assay type: ADME, tissue-based, Lung; conditions: in vivo

## CN[C@H](CC(C)C)C(=O)N[C@H]1C(=O)N[C@@H](CC(N)=O)C(=O)N[C@H]2C(=O)N[C@H]3C(=O)N[C@H](C(=O)N[C@H](C(=O)O)c4cc(O)cc(O)c4-c4cc3ccc4O)[C@H](O)c3ccc(c(Cl)c3)Oc3cc2cc(c3O[C@@H]2O[C@H](CO)[C@@H](O)[C@H](O)[C@H]2O[C@H]2C[C@](C)(N)[C@H](O)[C@H](C)O2)Oc2ccc(cc2Cl)[C@H]1O [VANCOMYCIN]
[1]
  Ratio: > 9.44
[2]
  Ratio: 17.89
[3]
  Ratio: 0.5
[4]
  Ratio: 4.69
[5]
  Ratio: 7.1
Lung [6]
  Drug uptake: 0.11 µg/g
[7]
  Ratio: 0.49
[8]
  AUC(0-inf): 2140 ng·h/mL
[9]
  AUC(0-inf): 1830 ng·h/mL
Lung [10]
  MTT: 0.47 min
[11]
  Ratio: > 17.89
[12]
  Ratio: 9.44
Lung [13]
  MTT: 0.78 min
[14]
  Drug uptake: 0.1 µg/g
